# In patent US20180291402A1, “Linalool Composition and Method of Producing Therefor” (AJINOMOTO CO., INC., priority 2015, published 2018):
# How the values were obtained:
# [1] = general statement on two-phase culture; cited from earlier work
# [2] = system: SWITCH-PphoC Δgcd/pSTV28 strain; assay: Linalool addition test (growth, O.D. value over time); assay type: cell-based, P. ananatis; details: reagent Linalool added at O.D. 0.6 to 0.7; tested at 1251, 837, 626 and 417 mg/L; M9 minimum medium, 34° C.; FIG. 58
# Description: The glycerol stock of the SWITCH-PphoC Δgcd/pSTV28 strain obtained by transforming the SWITCH-PphoC Δgcd strain constructed in Example 2 with the commercially available plasmid vector pSTV28 (produced by Takara Bio Inc.) was thawed, and 50 μL of a microbial cell suspension was uniformly applied onto an LB plate containing 60 mg/L of chloramphenicol and cultured at 34° C. for 18 hours while left to stand (without agitation). […] Cultivation was carried out using a small-sized shaking culture apparatus TVS062CA (produced by Advantec Toyo Kaisha, Ltd.) for 23 hours, the shaking of 5.0 sec was stopped every 15 minutes, and the O.D. values were automatically measured.
# The concentration of linalool in the culture medium was calculated from the specific gravity of the reagent Linalool (0.86 (20/4° C.)) (reference literature: actual values supplied from Wako Pure Chemical Industries, Ltd.).
# The graph showing changes of the O.D. value over time measured using TVS062CA communication software (TV100070, produced by Advantec Toyo Kaisha, Ltd.) is illustrated in FIG. 58.
smiles,measurement,setting,value
"C=C[C@](C)(O)CCC=C(C)C [R-linalool, (3R)-3,7-dimethylocta-1,6-diene-3-ol]",solubility with respect to water,[1],low solubility
"C=C[C@@](C)(O)CCC=C(C)C [S-linalool, (3 S)-3,7-dimethylocta-1,6-diene-3-ol]",solubility with respect to water,[1],low solubility
"C=CC(C)(O)CCC=C(C)C (stereo not drawn) [linalool, Linalool]",concentration of linalool added to the culture medium at which the O.D. value is decreased (microbial cell growth inhibition),[2],≥ 626 µg/mL
